# Source: publication PMC12196347, “Evaluating Triazole-Substituted Pyrrolopyrimidines as CSF1R Inhibitors” (Molecules, 2025)
# Read-outs that look alike come from different tables or passages of the source.
# Legend:
# [1] = tested on: IL-3 dependent Ba/F3 cell line (CSF1R independent); assay: Control assay for cellular toxicity, Ba/F3 cells dependent on IL-3; format: cell-based; details: Mus musculus, BaF3; Ba/F3 cells dependent on IL-3, control for cellular toxicity
# [2] = Mouse liver microsome intrinsic clearance, Phase I; format: in vitro ADME; details: in vitro intrinsic clearance
# ERBB4 (HER4) = biological target: T1, ERBB4 (HER4) (Homo sapiens, UniProt Q15303); assay: Kinase panel profiling: ERBB4; format: biochemical; details: ATP equal to KM
# T1 construct: purchased Thermo Fisher Scientific (Invitrogen) SelectScreen (Z'-LYTE)
# FYN = biological target: T2, FYN (Homo sapiens, UniProt P06241); assay: Kinase panel profiling: FYN; format: biochemical; details: ATP equal to KM
# T2 construct: purchased Thermo Fisher Scientific (Invitrogen) SelectScreen (Z'-LYTE)
# MUSK = biological target: T3, MUSK (Homo sapiens, UniProt O15146); assay: Kinase panel profiling: MUSK; format: biochemical; details: ATP equal to KM
# T3 construct: purchased Thermo Fisher Scientific (Invitrogen) SelectScreen (Z'-LYTE)
# T3 sequence (O15146 24-869): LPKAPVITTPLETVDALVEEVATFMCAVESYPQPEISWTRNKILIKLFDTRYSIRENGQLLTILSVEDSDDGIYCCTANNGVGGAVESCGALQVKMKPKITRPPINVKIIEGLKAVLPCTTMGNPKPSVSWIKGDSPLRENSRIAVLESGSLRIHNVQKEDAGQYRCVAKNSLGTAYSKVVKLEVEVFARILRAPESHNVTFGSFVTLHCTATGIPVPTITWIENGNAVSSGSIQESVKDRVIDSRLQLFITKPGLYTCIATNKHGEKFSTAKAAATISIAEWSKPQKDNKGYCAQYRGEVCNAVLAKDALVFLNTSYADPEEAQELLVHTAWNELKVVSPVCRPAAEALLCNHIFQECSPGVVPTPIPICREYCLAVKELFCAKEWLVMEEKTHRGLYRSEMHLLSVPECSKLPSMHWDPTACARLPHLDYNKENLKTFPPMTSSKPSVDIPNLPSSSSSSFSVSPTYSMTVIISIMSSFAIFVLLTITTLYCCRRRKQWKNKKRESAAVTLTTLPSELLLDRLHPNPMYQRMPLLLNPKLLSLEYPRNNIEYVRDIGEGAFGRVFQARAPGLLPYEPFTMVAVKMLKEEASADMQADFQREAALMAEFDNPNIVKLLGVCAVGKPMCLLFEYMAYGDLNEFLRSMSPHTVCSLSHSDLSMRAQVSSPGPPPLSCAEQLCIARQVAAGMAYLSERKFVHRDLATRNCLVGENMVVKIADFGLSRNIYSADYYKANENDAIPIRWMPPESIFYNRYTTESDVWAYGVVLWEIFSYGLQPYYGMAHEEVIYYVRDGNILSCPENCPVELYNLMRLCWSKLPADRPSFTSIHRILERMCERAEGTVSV
# PLK1 = PLK1 (Homo sapiens, UniProt P53350); assay: Kinase panel profiling: PLK1; format: biochemical; details: ATP equal to KM
# [3] = 1000 nM test concentration, read-out: Average inhibition (%)
# [4] = 1000 nM, first data point, read-out: Inhibition (%)
# [5] = 1000 nM, second data point, read-out: Inhibition (%)
# T2 sequence (P06241 whole entry): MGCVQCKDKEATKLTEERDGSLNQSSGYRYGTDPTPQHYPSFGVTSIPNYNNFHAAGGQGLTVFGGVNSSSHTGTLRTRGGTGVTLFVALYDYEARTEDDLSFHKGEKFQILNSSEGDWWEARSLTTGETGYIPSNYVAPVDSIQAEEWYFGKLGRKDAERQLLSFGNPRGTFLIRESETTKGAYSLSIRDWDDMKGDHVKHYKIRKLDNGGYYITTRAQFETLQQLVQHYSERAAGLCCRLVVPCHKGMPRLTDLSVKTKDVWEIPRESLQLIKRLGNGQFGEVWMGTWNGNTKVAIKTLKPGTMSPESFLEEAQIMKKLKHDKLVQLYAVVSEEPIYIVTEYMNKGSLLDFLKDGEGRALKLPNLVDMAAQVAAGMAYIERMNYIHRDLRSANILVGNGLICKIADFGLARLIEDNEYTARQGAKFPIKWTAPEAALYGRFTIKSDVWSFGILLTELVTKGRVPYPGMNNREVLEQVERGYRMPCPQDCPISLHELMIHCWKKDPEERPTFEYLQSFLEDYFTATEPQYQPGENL
# Chain of PLK1 (P53350 whole entry): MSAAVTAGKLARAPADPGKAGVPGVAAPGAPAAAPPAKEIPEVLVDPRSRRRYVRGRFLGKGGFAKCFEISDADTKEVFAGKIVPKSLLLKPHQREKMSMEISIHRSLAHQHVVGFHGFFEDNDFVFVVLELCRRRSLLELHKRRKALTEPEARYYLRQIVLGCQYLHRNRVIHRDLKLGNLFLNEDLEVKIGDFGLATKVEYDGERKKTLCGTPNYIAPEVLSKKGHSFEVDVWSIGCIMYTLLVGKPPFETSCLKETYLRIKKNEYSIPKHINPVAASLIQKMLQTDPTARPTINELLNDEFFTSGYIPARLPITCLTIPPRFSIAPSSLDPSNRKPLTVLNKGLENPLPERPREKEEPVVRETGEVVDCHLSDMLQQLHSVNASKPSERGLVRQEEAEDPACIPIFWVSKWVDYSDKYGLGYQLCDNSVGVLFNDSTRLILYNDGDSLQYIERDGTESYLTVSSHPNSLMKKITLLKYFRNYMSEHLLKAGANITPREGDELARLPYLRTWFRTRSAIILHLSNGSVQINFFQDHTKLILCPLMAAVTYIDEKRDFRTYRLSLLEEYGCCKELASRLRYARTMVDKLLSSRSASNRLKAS
# T1 sequence (Q15303 26-1308): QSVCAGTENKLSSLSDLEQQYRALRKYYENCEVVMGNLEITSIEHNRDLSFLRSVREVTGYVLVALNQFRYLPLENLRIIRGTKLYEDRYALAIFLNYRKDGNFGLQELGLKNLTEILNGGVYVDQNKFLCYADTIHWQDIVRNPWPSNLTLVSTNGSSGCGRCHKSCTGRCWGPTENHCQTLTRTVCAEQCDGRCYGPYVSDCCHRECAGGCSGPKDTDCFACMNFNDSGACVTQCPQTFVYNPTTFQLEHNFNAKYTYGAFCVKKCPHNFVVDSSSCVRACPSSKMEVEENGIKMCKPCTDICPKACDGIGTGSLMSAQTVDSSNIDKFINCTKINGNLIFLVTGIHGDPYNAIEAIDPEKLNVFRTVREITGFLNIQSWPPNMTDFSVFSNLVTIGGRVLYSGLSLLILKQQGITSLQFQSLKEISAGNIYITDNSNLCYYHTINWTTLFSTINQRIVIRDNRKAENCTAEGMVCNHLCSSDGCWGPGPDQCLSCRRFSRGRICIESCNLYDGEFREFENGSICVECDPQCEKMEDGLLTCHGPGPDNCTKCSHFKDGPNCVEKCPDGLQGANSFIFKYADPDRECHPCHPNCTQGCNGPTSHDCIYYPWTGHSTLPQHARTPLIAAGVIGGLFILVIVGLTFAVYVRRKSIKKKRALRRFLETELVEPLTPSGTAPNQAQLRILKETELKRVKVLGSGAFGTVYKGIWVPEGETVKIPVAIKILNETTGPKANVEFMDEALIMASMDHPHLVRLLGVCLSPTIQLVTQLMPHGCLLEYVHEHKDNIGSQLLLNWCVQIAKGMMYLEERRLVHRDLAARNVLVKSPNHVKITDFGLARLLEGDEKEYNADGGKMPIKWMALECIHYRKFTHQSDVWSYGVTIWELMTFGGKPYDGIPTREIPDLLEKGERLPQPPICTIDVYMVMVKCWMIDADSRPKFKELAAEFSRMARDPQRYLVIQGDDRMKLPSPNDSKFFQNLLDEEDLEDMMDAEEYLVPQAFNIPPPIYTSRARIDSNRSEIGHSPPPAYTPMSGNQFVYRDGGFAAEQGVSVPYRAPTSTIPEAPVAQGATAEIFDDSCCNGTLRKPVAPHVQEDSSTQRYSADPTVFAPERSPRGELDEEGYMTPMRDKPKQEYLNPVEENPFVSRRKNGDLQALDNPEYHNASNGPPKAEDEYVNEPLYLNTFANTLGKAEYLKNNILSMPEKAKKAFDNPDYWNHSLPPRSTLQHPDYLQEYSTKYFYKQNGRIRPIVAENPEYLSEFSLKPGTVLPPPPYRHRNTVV
smiles,measurement,setting,value
"Cc1cccc(CN(C)c2ncnc3[nH]c(-c4cn(Cc5cccnc5)nn4)cc23)c1 [Compound 27a, N-Methyl-N-(3-methylbenzyl)-6-(1-(pyridin-3-ylmethyl)-1H-1,2,3-triazol-4-yl)-7H-pyrrolo[2,3-d]pyrimidin-4-amine]",IC50,[1],> 10 µM
same,MLM,[2],295 µL/min/mg
same,inhibition at 1 µM,ERBB4 (HER4); [3],14%
same,inhibition at 1 µM,ERBB4 (HER4); [4],13%
same,inhibition at 1 µM,ERBB4 (HER4); [5],15%
same,inhibition at 1 µM,FYN; [3],76%
same,inhibition at 1 µM,FYN; [4],75%
same,inhibition at 1 µM,FYN; [5],77%
same,inhibition at 1 µM,MUSK; [3],72%
same,inhibition at 1 µM,MUSK; [4],73%
same,inhibition at 1 µM,MUSK; [5],72%
same,inhibition at 1 µM,PLK1; [3],6%
same,inhibition at 1 µM,PLK1; [4],5%
same,inhibition at 1 µM,PLK1; [5],6%
